Series [1] has as its system A/WSN/33 (H1N1).
Series [2] has as its system influenza B virus B/Brisbane/60/2008 (Victoria). Briefly: in vitro. The settings on record: dog, MDCK.
Series [3] relates to multiple strains of influenza A and B viruses. The series can be described thus: microbe, parasite or virus in culture. It is filed as cell-based.
The subject of series [4] is influenza B virus B/Wisconsin/1/2010 (Yamagata). The series can be described thus: in vitro. The settings on record: dog, MDCK.
A short description of series [5]: in vitro. The settings on record: dog.
Series [6] concerns A/Washington/29/2009 (H1N1).
For series [7], the system named is influenza B virus B/Memphis/20/1996 (Yamagata). Briefly: in vitro. The settings on record: dog, MDCK.
Series [8] has as its system influenza B virus B/Phuket/3073/2013 (Yamagata). The series can be described thus: in vitro. The settings on record: dog, MDCK.
Series [9] has as its system A/WSN/33 (H1N1). This is another data set of the same source.
The test system of series [10] is B/Memphis/20/1996 (Yamagata).
Series [11] concerns B/Wisconsin/1/2010 (Yamagata).
Series [12] concerns A/Denmark/528/2009 (H1N1).
For series [13], the system named is A/Switzerland/9715293/2013 (H3N2).
A short description of series [14]: in vitro. The settings on record: human.
In series [15] the test system is A/Denmark/524/2009 (H1N1).
Series [16] relates to influenza B virus B/Utah/09/2014 (Yamagata). Briefly: in vitro. The settings on record: dog, MDCK.
Series [17] deals with B/Phuket/3073/2013 (Yamagata).
For series [18], the system named is B/Brisbane/60/2008 (Victoria).
In series [19] the test system is A/California/07/2009 (H1N1).
In series [20] the test system is B/Utah/09/2014 (Yamagata).

`O=c1[nH]c2ccccc2n1C1CCN(C(CCc2ccccc2)c2nnnn2-c2ccc3c(c2)OCCO3)CC1` (stereo not drawn) [Compound 5, 1‐(1‐{1‐[1‐(2,3‐dihydro‐1,4‐benzodioxin‐6‐yl)‐1,2,3,4‐tetrazol‐5‐yl]‐3‐phenylpropyl}piperidin‐4‐ yl)‐3 H‐1,3‐benzodiazol‐2‐one]: the “% plaque formation at 5 µM” value in the series on A/WSN/33 (H1N1) [1] turned out to be 16.5 ± 1.2%. In addition, the selectivity ratio in series [2] was 17.4; in series [4], 19.3. Moreover, the “EC50 values against panel of influenza A and B viruses” value in series [3] is “single to submicromolar”. This compound gave a CC50 in the series “in vitro [5]” of 17.4 ± 1.2 µM.
For `O=c1[nH]c2ccccc2n1C1CCN(C(c2ccc(-c3ccccc3)cc2)c2nnnn2-c2ccc3c(c2)OCCO3)CC1` (stereo not drawn) [Compound 9 f, 1‐[1‐({[1,1′‐biphenyl]‐4‐yl}[1‐(2,3‐dihydro‐1,4‐benzodioxin‐6‐yl)‐1 H‐1,2,3,4‐tetrazol‐5‐yl]methyl)piperidin‐4‐yl]‐2,3‐dihydro‐1 H‐1,3‐benzodiazol‐2‐one], the “antiviral activity in plaque assay (in words)” value (shortened to “antiviral activity … (in words)”) in the series on A/WSN/33 (H1N1) [1] is listed as “not active”.
Still for that read-out and setting: with `CCc1ccc(C(c2nnnn2-c2ccc3c(c2)OCCO3)N2CCC(n3c(=O)[nH]c4ccccc43)CC2)cc1` (stereo not drawn) [Compound 9 g, 1‐(1‐{[1‐(2,3‐dihydro‐1,4‐benzodioxin‐6‐yl)‐1 H‐1,2,3,4‐tetrazol‐5‐yl](4‐ethylphenyl)methyl}piperidin‐4‐yl)‐2,3‐dihydro‐1 H‐1,3‐benzodiazol‐2‐one] the entry was “moderate antiviral activity”.
Still for that read-out and setting: with `O=c1[nH]c2ccccc2n1C1CCN(C(c2ccncc2)c2nnnn2-c2ccc3c(c2)OCCO3)CC1` (stereo not drawn) [Compound 9 h, 1‐(1‐{[1‐(2,3‐dihydro-1,4-benzodioxin-6-yl)-1 H-1,2,3,4-tetrazol-5-yl](pyridin-4-yl)methyl}piperidin-4-yl)-2,3-dihydro-1 H-1,3-benzodiazol-2-one] the entry was “moderate antiviral activity”.
Consider `O=c1[nH]c2ccccc2n1C1CCN(C(c2ccccc2OC(F)(F)F)c2nnnn2Cc2ccccc2)CC1` (stereo not drawn) [Compound 9 u, 1‐{1‐[(1‐benzyl‐1 H‐1,2,3,4‐tetrazol‐5‐yl)[2‐(trifluoromethoxy)phenyl]methyl]piperidin‐4‐yl}‐2,3‐dihydro‐1 H‐1,3‐benzodiazol‐2‐one], for which the “% plaque formation at 5 µM” value in the series on A/WSN/33 (H1N1) [1] was determined as 22.7 ± 2.2%.
For `CCC(c1nnnn1-c1ccc2c(c1)OCCO2)N1CCC(n2c(=O)[nH]c3ccccc32)CC1` (stereo not drawn) [Compound 9d, 1‐(1‐{1‐[1‐(2,3‐dihydro‐1,4‐benzodioxin‐6‐yl)‐1 H‐1,2,3,4‐tetrazol‐5‐yl]propyl}piperidin‐4‐yl)‐2,3‐dihydro‐1 H‐1,3‐benzodiazol‐2‐one], the “antiviral activity … (in words)” value in the series with A/WSN/33 (H1N1) [1] is given as “moderate antiviral activity”.
Take `O=c1[nH]c2ccccc2n1C1CCN(C(Cc2ccccc2)c2nnnn2-c2ccc3c(c2)OCCO3)CC1` (stereo not drawn) [Compound 9e, 1‐(1‐{1‐[1‐(2,3‐dihydro‐1,4‐benzodioxin‐6‐yl)‐1 H‐1,2,3,4‐tetrazol‐5‐yl]‐2‐phenylethyl}piperidin‐4‐yl)‐2,3‐dihydro‐1 H‐1,3‐benzodiazol‐2‐one]: the “antiviral activity … (in words)” value in the series with A/WSN/33 (H1N1) [1] is given as “moderate antiviral activity”.
On the same count and under the same terms, under `CC(C)c1ccc(C(c2nnnn2-c2ccc3c(c2)OCCO3)N2CCC(n3c(=O)[nH]c4ccccc43)CC2)cc1` (stereo not drawn) [Compound 9j, 1‐(1‐{[1‐(2,3‐dihydro‐1,4‐benzodioxin‐6‐yl)‐1 H‐1,2,3,4‐tetrazol‐5‐yl][4‐(propan‐2‐yl)phenyl]methyl}piperidin‐4‐yl)‐2,3‐dihydro‐1 H‐1,3‐benzodiazol‐2‐one] stands “not active”.
Consider `O=c1[nH]c2ccccc2n1C1CCN(C(c2ccsc2)c2nnnn2Cc2ccccc2)CC1` (stereo not drawn) [Compound 9p, 1‐{1‐[(1‐benzyl‐1 H‐1,2,3,4‐tetrazol‐5‐yl)(thiophen‐3‐yl)methyl]piperidin‐4‐yl}‐2,3‐dihydro‐1 H‐1,3‐benzodiazol‐2‐one], for which the “% plaque formation at 5 µM” value in the series with A/WSN/33 (H1N1) [1] worked out at 12.3 ± 2.1%.
In the case of `C[C@@H](c1ccccc1)n1nnnc1[C@H](c1ccsc1)N1CCC(n2c(=O)[nH]c3ccccc32)CC1` [Compound 12a, 1‐{1‐[(S)‐{1‐[(1 S)‐1‐phenylethyl]‐1 H‐1,2,3,4‐tetrazol‐5‐yl}(thiophen‐3‐yl)methyl]piperidin‐4‐yl}‐2,3‐dihydro‐1 H‐1,3‐benzodiazol‐2‐one], the “SI (selectivity index), A549” value was >166.7/109.0 in [6]; >214.3/140.1 in the series on A/WSN/33 (H1N1) [1]; >55.6/36.3 in series [10]; >187.5/122.6 in series [11]; >166.7/109.0 in series [12]; >136.4/89.2 with A/Texas/04/2009 (H1N1). Further, the “SI (selectivity index), A549” value is given as >107.1/70.1 in series [13]; >187.5/122.6 in [15]; >125/81.8 in series [17]; >250/163.5 in series [18]; >115.4/75.5 in [19]; >100/65.4 in series [20]. Besides, the selectivity ratio is over 55.6 in series [7]; over 125 in series [8]; over 250 in series [2]; over 100 in [16]; over 188 in [4]. For the same compound, in the series with A/WSN/33 (H1N1) [9], the “effect of pre-treatment of cells on viral replication” value is on record as “little to no effect on viral replication”. Besides, the “efficacy when added at later stages of viral replication” value with A/WSN/33 (H1N1) [9] is recorded as “gradually decreased”. For the same compound, the figures for the CC50 in the series “in vitro [14]” and in the series “in vitro [5]” were 98.1 ± 2.5 µM and over 150 µM, respectively. The concentration for a half-maximal effect (EC50) (in general, the concentration giving half of the maximal effect) in series [3] ([…], read-out: EC50 values against panel of influenza A and B viruses) lay within 0.6 to 2.7 µM.
In the case of `C[C@@H](c1ccccc1)n1nnnc1[C@@H](c1ccsc1)N1CCC(n2c(=O)[nH]c3ccccc32)CC1` [Compound 12b, 1‐{1‐[(R)‐{1‐[(1 S)‐1‐phenylethyl]‐1 H‐1,2,3,4‐tetrazol‐5‐yl}(thiophen‐3‐yl)methyl]piperidin‐4‐yl}‐2,3‐dihydro‐1 H‐1,3‐benzodiazol‐2‐one], the “antiviral activity … (in words)” value in the series with A/WSN/33 (H1N1) [1] is reported as “not active”.
`Cc1onc(-c2ccccc2)c1C(=O)N1CCN(c2ccc([N+](=O)[O-])cc2Cl)CC1` [Nucleozin, reference compound]: in the series on A/WSN/33 (H1N1) [1], the “% plaque formation” value worked out at 0%.
Turning to “Oseltamivir carboxylate [reference compound]”, the “% plaque formation” value with A/WSN/33 (H1N1) [1] stood at 11.1 ± 2.1%. The “antiviral activity when added 8 h post viral infection” value with A/WSN/33 (H1N1) [9] is reported as “retained potent antiviral activity”.

For the origin of these results see publication PMC5854701 (Scientific Reports, 2018).
